Data on 18 compounds can be found in patent publication US20260297095A1, “NOVEL PYRROLOTRIAZINE DERIVATIVE AND USE THEREOF” (Pelemed Co., Ltd., priority 2024, published 2026).

Broadly, the inhibition is the change of the read-out against control, counted positive when it falls. One may read the GI50 as the concentration giving 50% growth inhibition.

Chain of YES1 kinase (P07947 whole entry): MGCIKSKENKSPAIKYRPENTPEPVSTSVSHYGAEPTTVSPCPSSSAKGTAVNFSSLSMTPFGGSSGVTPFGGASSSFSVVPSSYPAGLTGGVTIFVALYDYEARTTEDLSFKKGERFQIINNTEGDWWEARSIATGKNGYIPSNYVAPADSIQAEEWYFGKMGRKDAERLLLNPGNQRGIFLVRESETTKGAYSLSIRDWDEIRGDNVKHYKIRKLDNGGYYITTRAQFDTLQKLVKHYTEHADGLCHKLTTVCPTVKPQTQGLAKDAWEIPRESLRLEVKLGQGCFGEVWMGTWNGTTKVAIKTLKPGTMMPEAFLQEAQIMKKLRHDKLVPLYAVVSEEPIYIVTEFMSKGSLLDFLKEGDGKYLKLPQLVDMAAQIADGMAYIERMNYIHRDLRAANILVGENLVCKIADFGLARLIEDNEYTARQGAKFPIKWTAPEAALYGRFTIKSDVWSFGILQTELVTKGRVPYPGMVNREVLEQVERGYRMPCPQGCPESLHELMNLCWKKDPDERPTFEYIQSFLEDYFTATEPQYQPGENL

The target in the first assay is YES1 kinase (Homo sapiens, UniProt P07947). Nature of the assay: YES1 kinase inhibition, ADP Glo assay (Promega). It counts as biochemical. The following applies: compound 10 nM; read-out: YES1 enzyme, % inhibition, 10 nM. As for the experimental part:
To evaluate the inhibitory activity against YES1 kinase of the compound according to the present invention, ADP Glo assay (Promega) was used, and the following method was performed with reference to the Promega kinase enzyme system protocol. To proceed with the experiment, buffers A-F and compound dilution plates were required.
To prepare A.4X reaction buffer, 800 μl of 5X reaction buffer and 200 μl of distilled water were used. To prepare B.4X kinase buffer, 996.6 μl of A.4X reaction buffer, 2 μl of 0.1M DTT, and 3.2 μl of 2.5M MnCl2 were added and mixed. To prepare C.1X kinase buffer (containing 5% DMSO) used for compound dilution, 250 μl of B.4X kinase buffer, 700 μl of distilled water, and 50 μl of DMSO were added, so that the final DMSO concentration became 5%. Then, 10 mM compounds were diluted 100-fold to prepare 100 μM solutions, and then D.5X inhibitor solution was prepared so that the compound concentration became 5 uM. Using a 96-well plate, 5 μM compounds were 3-fold diluted using C.1X kinase buffer (containing 5% DMSO) to prepare compound plates with concentrations ranging from 0.25 μM to 5 μM. The resulting plates were stored at room temperature. To prepare E. 2.5X ATP/substrate mixture, 50 μl of B.4X kinase buffer, 50 μl of […], and 100 μl of substrate were mixed. To prepare F YES1 kinase enzyme solution, 35 μl of B.4X kinase buffer, 0.4 μl of YES1 enzyme, and 104.6 μl of distilled water were used. Once the diluted compound plates, ATP/substrate mixture, and YES1 kinase solution were all prepared, 3 μL each was transferred from the diluted compound plate to a luciferase 96-well white plate (Since the total volume of the ATP/substrate and YES1 kinase solution that reacts with the compound is 15 μL, the compounds were diluted 5-fold, making the final compound concentration 0.05 μM-1 μM). Then, 6 μL of F. YES1 Kinase Enzyme Solution was transferred to each well, pipetted 10 times to mix, and incubated at room temperature in a shaker for 10 minutes. Next, 6 μL of E. 2.5X ATP/Substrate Mixture was transferred to each well, pipetted 10 times to mix, and centrifuged at 12,000 rpm for 5 minutes. The plate was then incubated in a shaker at room temperature for 40 minutes. After that, 15 μL of ADP-Glo Reagent, dissolved at room temperature, was added to each well, pipetted 10 times, and incubated in a shaker at room temperature for 40 minutes. Finally, 30 μL of Kinase Detection Reagent, dissolved at room temperature, was added, pipetted 10 times, incubated in a shaker at room temperature for 30 minutes. Luminescence was measured using a luminescence plate reader. Then, the background value was subtracted from all measured values, and the YES1 kinase activity at compound concentrations of 1 nM, 10 nM, and 100 nM was calculated. The measured values were calculated as percentages using the average value of the negative control. Graphs were drawn using GraphPad Prism, and the enzyme activity was calculated as a percentage of YES1 kinase inhibition at compound concentrations of 1 nM, 10 nM, and 100 nM. IC50 values were obtained using Microsoft Excel.
In general terms: In ADP-Glo the light output rises with the ADP produced.
On to `COc1cc(-c2cc(N3C[C@H]4CN(C)C[C@H]4C3)n3ncnc(N)c23)ccc1NC(=O)OC(C)(C)C` [Example 34, tert-butyl (4-(4-amino-7-((3aR,6aS)-5-methylhexahydropyrrolo[3,4-c]pyrrol-2(1H)-yl)pyrrolo[2,1-f][1,2,4]triazin-5-yl)-2-methoxyphenyl)carbamate], for which the inhibition at 0.01 µM came out at 37%. `COc1cc(-c2cc(N3CC[C@@H](N(C)C)[C@H](F)C3)n3ncnc(N)c23)ccc1NC(=O)OC(C)(C)C` [Example 32, tert-butyl (4-(4-amino-7-((3R,4R)-4-(dimethylamino)-3-fluoropiperidin-1-yl)pyrrolo[2,1-f][1,2,4]triazin-5-yl)-2-methoxyphenyl)carbamate]: the inhibition at 0.01 µM worked out at 51%.

Still in this assay, the particulars now being: compound 100 nM; read-out: YES1 enzyme, % inhibition, 100 nM.
As to `COc1cc(-c2cc(N3C[C@H]4CN(C)C[C@H]4C3)n3ncnc(N)c23)ccc1NC(=O)OC(C)(C)C` [Example 34, tert-butyl (4-(4-amino-7-((3aR,6aS)-5-methylhexahydropyrrolo[3,4-c]pyrrol-2(1H)-yl)pyrrolo[2,1-f][1,2,4]triazin-5-yl)-2-methoxyphenyl)carbamate], the inhibition at 0.1 µM is 74%. Turning to `COc1cc(-c2cc(N3CC[C@@H](N(C)C)[C@H](F)C3)n3ncnc(N)c23)ccc1NC(=O)OC(C)(C)C` [Example 32, tert-butyl (4-(4-amino-7-((3R,4R)-4-(dimethylamino)-3-fluoropiperidin-1-yl)pyrrolo[2,1-f][1,2,4]triazin-5-yl)-2-methoxyphenyl)carbamate], the inhibition at 0.1 µM was 82%.

Another assay relates to KYSE-70 esophageal cancer cell line. Put plainly: Cell growth inhibition of KYSE-70 (Sulforhodamine B). In kind it is cell-based. The following applies: Homo sapiens; KYSE-70, 72 hours; read-out: KYSE70 GI50. As for the experimental part:
The cell line according to the present invention was selected as KYSE-70, an esophageal cancer cell line in which YES1 is amplified. The evaluation of cell growth inhibition was performed as follows.
KYSE-70 was cultured in RPMI-1640 (Capricorn) supplemented with 10% FBS (Cellgro). The cells were seeded 24 hours prior to compound treatment, into three 96-well F-bottom clear plates (Greiner), with 7,500 cells per well in 180 μL of medium. The 10 mM compound was diluted 100-fold in medium to prepare a 100 μM compound, which was then placed into a 96-well plate and further 3-fold diluted in medium to prepare a compound plate with concentrations ranging from 0.046 μM to 100 μM. 20 μL of each compound from the drug plate was added to the cell-seeded plates to achieve final concentrations of 0.0046 μM to 10 μM. At the same time, 50 μL of 33% trichloroacetic acid was injected into one plate and the plate was fixed by incubating at 4° C. This was referred to as the Do plate. Viable cells were measured 72 hours after compound treatment by injecting 50 μL of 33% trichloroacetic acid and incubating at 4° C. for more than 1 hour to fix the cells. This was referred to as the D3 plate. After the Do plate and D3 plates were washed 5 times with sterile water, 100 μL of 0.04% Sulforhodamine B solution in 1% acetic acid was added and reacted for 1 hour to stain the cells. After staining, the plates were washed 4 times with 1% acetic acid solution and completely dried. Then, the Sulforhodamine B bound to cellular proteins was completely dissolved with 10 mM Tris base solution (pH 10.5). The absorbance was measured at a wavelength of 510 nm using a microplate reader (TECAN, sunrise microplate reader). The analysis was performed using GraphPad Prism. The average absorbance of the Do plate was set to 0%, and the average absorbance of the negative control of the D3 plate was set to 100%, from which a graph was drawn and the GI50 values were calculated. Each test was performed twice.
Turning to `COc1cc(-c2cc(NC[C@H]3CC[C@@H](N)C3)n3ncnc(N)c23)ccc1NC(=O)OC(C)(C)C` [Example 110, tert-butyl (4-(4-amino-7-((((1S,3R)-3-aminocyclopentyl)methyl)amino)pyrrolo[2,1-f][1,2,4]triazin-5-yl)-2-methoxyphenyl)carbamate], the GI50 fell in the range of 100 to 1000 nM. As for `COc1cc(-c2c(C(F)(F)F)c(N3CCC(N)CC3)n3ncnc(N)c23)ccc1NC(=O)OC(C)(C)C` [Example 125, tert-butyl (4-(4-amino-7-(4-aminopiperidin-1-yl)-6-(trifluoromethyl)pyrrolo[2,1-f][1,2,4]triazin-5-yl)-2-methoxyphenyl)carbamate], the GI50 lay in the range of 100 to 1000 nM. For `CC(C)(C)OC(=O)Nc1ccc(-c2cc(N3CCC(N)CC3)n3ncnc(N)c23)c2c1OCO2` [Example 73, tert-butyl (7-(4-amino-7-(4-aminopiperidin-1-yl)pyrrolo[2,1-f][1,2,4]triazin-5-yl)benzo[d][1,3]dioxol-4-yl)carbamate], the GI50 is ≤ 100 nM. Same read-out and setting: the result for `CNC1CCN(c2c(C)c(-c3ccc(NC(=O)OC(C)(C)CF)c(OC)c3)c3c(N)ncnn23)CC1` [Example 61, 1-fluoro-2-methylpropan-2-yl (4-(4-amino-6-methyl-7-(4-(methylamino)piperidin-1-yl)pyrrolo[2,1-f][1,2,4]triazin-5-yl)-2-methoxyphenyl)carbamate] reads ≤ 100 nM; that for `COc1cc(-c2cc(N3CCC(N)CC3)n3ncnc(N)c23)ccc1NC(=O)OC(C)(C)C(F)(F)F` [Example 72, 1,1,1-trifluoro-2-methylpropan-2-yl (4-(4-amino-7-(4-aminopiperidin-1-yl)pyrrolo[2,1-f][1,2,4]triazin-5-yl)-2-methoxyphenyl)carbamate], 100 to 1000 nM; that for `COc1cc(-c2cc(N3CCC(C(N)=O)CC3)n3ncnc(N)c23)ccc1NC(=O)OC(C)(C)C` [Example 97, tert-butyl (4-(4-amino-7-(4-carbamoylpiperidin-1-yl)pyrrolo[2,1-f][1,2,4]triazin-5-yl)-2-methoxyphenyl)carbamate], > 10000 nM. As for `CNCCC1CCN(c2c(C)c(-c3ccc(NC(=O)OC(C)(C)C)c(OC)c3)c3c(N)ncnn23)CC1` [Example 77, tert-butyl (4-(4-amino-6-methyl-7-(4-(2-(methylamino)ethyl)piperidin-1-yl)pyrrolo[2,1-f][1,2,4]triazin-5-yl)-2-methoxyphenyl)carbamate], the GI50 fell in the range of 100 to 1000 nM. In the case of `CNC1CCN(c2c(C)c(-c3ccc(NC(=O)OC(C)(C)C)c(OC)c3)c3c(N)ncnn23)CC1` [Example 75, tert-butyl (4-(4-amino-6-methyl-7-(4-(methylamino)piperidin-1-yl)pyrrolo[2,1-f][1,2,4]triazin-5-yl)-2-methoxyphenyl)carbamate], the GI50 is ≤ 100 nM. Same read-out and setting: the result for `COc1cc(-c2c(C)c(N3CCC(N(C)C)CC3)n3ncnc(N)c23)ccc1NC(=O)OC(C)(C)C` [Example 76, tert-butyl (4-(4-amino-7-(4-(dimethylamino)piperidin-1-yl)-6-methylpyrrolo[2,1-f][1,2,4]triazin-5-yl)-2-methoxyphenyl)carbamate] reads ≤ 100 nM; that for `CC1(OC(=O)Nc2ccc(-c3cc(N4CCC(N)CC4)n4ncnc(N)c34)c3c2OCO3)CC1` [Example 70, 1-methylcyclopropyl (7-(4-amino-7-(4-aminopiperidin-1-yl)pyrrolo[2,1-f][1,2,4]triazin-5-yl)benzo[d][1,3]dioxol-4-yl)carbamate], 100 to 1000 nM; that for `COc1cc(-c2cc(CCN3CCC(N)CC3)n3ncnc(N)c23)ccc1NC(=O)OC(C)(C)CF` [Example 68, 1-fluoro-2-methylpropan-2-yl (4-(4-amino-7-(2-(4-aminopiperidin-1-yl)ethyl)pyrrolo[2,1-f][1,2,4]triazin-5-yl)-2-methoxyphenyl)carbamate], ≤ 100 nM. For `COc1cc(-c2c(C)c(N3CCC(N(C)C)CC3)n3ncnc(N)c23)ccc1NC(=O)OC(C)(C)CF` [Example 62, 1-fluoro-2-methylpropan-2-yl (4-(4-amino-7-(4-(dimethylamino)piperidin-1-yl)-6-methylpyrrolo[2,1-f][1,2,4]triazin-5-yl)-2-methoxyphenyl)carbamate], the GI50 was ≤ 100 nM. Consider `COc1cc(-c2cc(N3CCC(C(C)N)CC3)n3ncnc(N)c23)ccc1NC(=O)OC(C)(C)C` (centres unmarked) [Example 81, tert-butyl (4-(4-amino-7-(4-(1-aminoethyl)piperidin-1-yl)pyrrolo[2,1-f][1,2,4]triazin-5-yl)-2-methoxyphenyl)carbamate], for which the GI50 was in the range of 100 to 1000 nM.

`CNCCC1CCN(c2cc(-c3ccc(NC(=O)OC(C)(C)CF)c(OC)c3)c3c(N)ncnn23)CC1` [Example 66, 1-fluoro-2-methylpropan-2-yl (4-(4-amino-7-(4-(2-(methylamino)ethyl)piperidin-1-yl)pyrrolo[2,1-f][1,2,4]triazin-5-yl)-2-methoxyphenyl)carbamate]: the GI50 was ≤ 100 nM. Consider `CNC1CCN(CCc2c(F)c(-c3ccc(NC(=O)OC(C)(C)C)c(OC)c3)c3c(N)ncnn23)CC1` [Example 130, tert-butyl (4-(4-amino-6-fluoro-7-(2-(4-(methylamino)piperidin-1-yl)ethyl)pyrrolo[2,1-f][1,2,4]triazin-5-yl)-2-methoxyphenyl)carbamate], for which the 50% growth inhibitory concentration (GI50) is ≤ 100 nM. Still for that read-out and setting: the result for `COc1cc(-c2c(Cl)c(N3CCC(N(C)C)CC3)n3ncnc(N)c23)ccc1NC(=O)OC(C)(C)C` [Example 124, tert-butyl (4-(4-amino-6-chloro-7-(4-(dimethylamino)piperidin-1-yl)pyrrolo[2,1-f][1,2,4]triazin-5-yl)-2-methoxyphenyl)carbamate] reads ≤ 100 nM.
